Laboratory results published in the NIST ThermoML archive (doi:10.1016/j.jct.2013.02.006).
± gives the expanded uncertainty stated by the source.

Assay: activity coefficient (dimensionless); of the first substance listed, at infinite dilution; xn = mol fraction of the nth substance listed
Settings: 101 kPa, Liquid, Chromatography, x1 = 0

SMILES	activity coefficient (333.2 K)	activity coefficient (348.2 K)	activity coefficient (363.2 K)
C#CCCC [1-pentyne] + CN1CCCC1=O	1.27 ± 0.08	1.41 ± 0.09	1.63 ± 0.11
CCO [ethanol] + CN1CCCC1=O	0.606 ± 0.042	0.605 ± 0.042	0.618 ± 0.043
C=CCCCCC [1-heptene] + CN1CCCC1=O	6.37 ± 0.43	6.24 ± 0.43	6.28 ± 0.43
C#CCCCCCC [1-octyne] + O=CN1CCOCC1	5.15 ± 0.35	4.9 ± 0.3	4.65 ± 0.32
C#CCCCCC [1-heptyne] + O=CN1CCOCC1	3.85 ± 0.26	3.83 ± 0.26	3.68 ± 0.25
CCCCCCC [heptane] + O=CN1CCOCC1	31.3 ± 2.1	27.5 ± 1.9	25.9 ± 1.8
C1CCCCCCC1 [cyclooctane] + CN1CCCC1=O	8.23 ± 0.56	7.62 ± 0.52	6.06 ± 0.41
C1CCCC1 [cyclopentane] + CN1CCCC1=O	5.16 ± 0.35	4.68 ± 0.32	4.55 ± 0.31
C1CCCCCC1 [cycloheptane] + CN1CCCC1=O	7.51 ± 0.51	6.71 ± 0.46	6.8 ± 0.46
CCCCCCCC [octane] + O=CN1CCOCC1	39.5 ± 2.7	34.3 ± 2.4	30.6 ± 2.1
CC(C)O [propan-2-ol] + CN1CCCC1=O	0.627 ± 0.043	0.639 ± 0.044	0.632 ± 0.044
CCCCCC [hexane] + CN1CCCC1=O	9.51 ± 0.65	9.19 ± 0.63	8.51 ± 0.58
CCCCCC [hexane] + O=CN1CCOCC1	24.6 ± 1.7	21.5 ± 1.5	19.6 ± 1.3
CCCCCCCCC [nonane] + CN1CCCC1=O	16.7 ± 1.1	14.9 ± 1	12 ± 0.82
C#CCCC [1-pentyne] + O=CN1CCOCC1	2.56 ± 0.17	2.58 ± 0.18	2.38 ± 0.16
CCCCC [pentane] + CN1CCCC1=O	8.32 ± 0.57	8.11 ± 0.55	7.54 ± 0.51
C=CCCCCCC [oct-1-ene] + CN1CCCC1=O	8.39 ± 0.57	7.6 ± 0.52	6.7 ± 0.46
CCc1ccccc1 [ethylbenzene] + O=CN1CCOCC1	3.46 ± 0.24	3.41 ± 0.23	3.21 ± 0.22
C1CCCC1 [cyclopentane] + O=CN1CCOCC1	10.2 ± 0.7	8.75 ± 0.6	7.59 ± 0.52
C1CCCCCCC1 [cyclooctane] + O=CN1CCOCC1	17.7 ± 1.2	14.5 ± 0.99	11.9 ± 0.81
CCCCCCCCC [nonane] + O=CN1CCOCC1	50.2 ± 3.4	43.5 ± 3	38.2 ± 2.6
CCCCCCCC [octane] + CN1CCCC1=O	13.8 ± 0.94	13.2 ± 0.9	10.6 ± 0.72
CCCO [propan-1-ol] + O=CN1CCOCC1	1.25 ± 0.08	1.15 ± 0.073	0.913 ± 0.058
c1ccccc1 [benzene] + CN1CCCC1=O	1.1 ± 0.07	1.14 ± 0.07	1.1 ± 0.07

SMILES	activity coefficient (333.2 K)	activity coefficient (348.2 K)	activity coefficient (363.2 K)
CCO [ethanol] + O=CN1CCOCC1	1.2 ± 0.077	1.14 ± 0.073	0.914 ± 0.058
C#CCCCC [1-hexyne] + O=CN1CCOCC1	3.25 ± 0.22	3.19 ± 0.22	2.78 ± 0.19
Cc1ccccc1 [toluene] + O=CN1CCOCC1	2.71 ± 0.18	4.04 ± 1.5	2.55 ± 0.17
C1CCCCCC1 [cycloheptane] + O=CN1CCOCC1	15.4 ± 1.1	12.7 ± 0.87	10.5 ± 0.71
C=CCCCC [hex-1-ene] + O=CN1CCOCC1	13.5 ± 0.92	11.6 ± 0.79	10.5 ± 0.72
CO [methanol] + O=CN1CCOCC1	0.852 ± 0.055	0.847 ± 0.054	0.706 ± 0.047
C1CCCCC1 [cyclohexane] + O=CN1CCOCC1	13.8 ± 0.94	12.3 ± 0.84	11 ± 1
C#CCCCC [1-hexyne] + CN1CCCC1=O	1.47 ± 0.1	1.57 ± 0.1	1.77 ± 0.12
CCCCC [pentane] + O=CN1CCOCC1	19.2 ± 1.3	17.3 ± 1.2	15.3 ± 1
CCc1ccccc1 [ethylbenzene] + CN1CCCC1=O	1.73 ± 0.12	1.83 ± 0.12	1.61 ± 0.11
CO [methanol] + CN1CCCC1=O	0.482 ± 0.037	0.556 ± 0.04	0.511 ± 0.038
C=CCCC [1-pentene] + O=CN1CCOCC1	9.97 ± 0.68	9.43 ± 0.64	8.61 ± 0.59
C1CCCCC1 [cyclohexane] + CN1CCCC1=O	6.32 ± 0.43	5.83 ± 0.4	5.41 ± 0.37
Cc1ccccc1 [toluene] + CN1CCCC1=O	1.39 ± 0.09	1.35 ± 0.09	1.42 ± 0.09
CC(C)O [propan-2-ol] + O=CN1CCOCC1	1.46 ± 0.1	1.29 ± 0.083	0.933 ± 0.059
CCCO [propan-1-ol] + CN1CCCC1=O	0.537 ± 0.039	0.552 ± 0.04	0.548 ± 0.04
c1ccccc1 [benzene] + O=CN1CCOCC1	1.91 ± 0.13	1.82 ± 0.12	1.81 ± 0.12
C=CCCCC [hex-1-ene] + CN1CCCC1=O	5.51 ± 0.38	5.44 ± 0.37	5.57 ± 0.38
C=CCCC [1-pentene] + CN1CCCC1=O	4.75 ± 0.32	4.84 ± 0.33	4.99 ± 0.34
C#CCCCCCC [1-octyne] + CN1CCCC1=O	2.07 ± 0.14	2.15 ± 0.15	2.16 ± 0.15
C=CCCCCC [1-heptene] + O=CN1CCOCC1	16 ± 1.1	14.6 ± 1	13.3 ± 0.91
C=CCCCCCC [oct-1-ene] + O=CN1CCOCC1	20.5 ± 1.4	18.4 ± 1.3	16.7 ± 1.1
C#CCCCCC [1-heptyne] + CN1CCCC1=O	1.72 ± 0.12	1.79 ± 0.12	1.92 ± 0.13
CCCCCCC [heptane] + CN1CCCC1=O	11.4 ± 0.78	10.7 ± 0.73	10 ± 0.68
